Values of other authors as cited in patent US11612885B2, “Methods, compositions and kits useful for pH gradient cation exchange chromatography” (WATERS TECHNOLOGIES CORPORATION, priority 2018, dated 2023).

Conditions: buffer salts used in the Examples

| Structure (SMILES) | pKa1 | pKa2 |
| --- | --- | --- |
| CC(C)(N)CO [AMP, 2-amino-2-methyl-1-propanol] | 9.7 |  |
| CC(N)(CO)CO [AMPD, 2-amino-2-methyl-1,3-propanediol] | 8.8 |  |
| OCC(CO)(CO)NCCCNC(CO)(CO)CO [BIS-TRIS Propane, 1,3-bis(tris(hydroxymethyl)methylamino)propane] | 6.8 | 9.1 |
| NCC(=O)O [Gly, Aminoethanoic acid] | 2.4 | 8.1 |
| c1c[nH]cn1 [Imidazole, 1,3-diazacyclopenta-2,4-diene] | 7.0 |  |
| O=C(O)CCC(=O)O [Succinic Acid, 1,4-butandioic acid] | 4.1 | 5.5 |

Other lines, results leading:

| pKa1 | pKa2 | Structure (SMILES) |
| --- | --- | --- |
| 6.9 |  | NC(=O)CNCCS(=O)(=O)O [ACES, 2-(carbamoylmethylamino)ethanesulfonic acid] |
| 10.4 |  | O=S(=O)(O)CCCNC1CCCCC1 [CAPS, 3-(Cyclohexylamino)-1-propanesulfonic acid] |
| 3.1 | 8.1 | NCC(=O)NCC(=O)O [Gly-Gly, 2-[(2-Aminoacetyl)amino] acetic acid] |

Conditions: background statement; exposure

| Structure (SMILES) | known toxicity |
| --- | --- |
| C1CNCCN1 [Piperazine, 1,4-Diazinane] | acute respiratory and skin irritation as well as organ damage with prolonged exposure |
